As usually defined, the Ki is the dissociation constant of the complex between target and ligand, obtained from inhibition or displacement.

Data on 23 molecules can be found in US9637496B2, “Substituted 7-azabicycles and their use as orexin receptor modulators” (priority 2013, dated 2017).

The target of one experiment is rat orexin 1 receptor (Rattus norvegicus (Rat), UniProt P56718). Put plainly: Rat orexin 1 receptor radioligand binding (competitive binding, HEK293 membranes).
Another experiment has as its target human orexin 1 receptor (Homo sapiens (Human), UniProt O43613). Put plainly: Human orexin 1 receptor radioligand binding (competitive binding, CHO membranes).
The target in another experiment is human orexin 2 receptor (Homo sapiens (Human), UniProt O43614). Put plainly: Human orexin 2 receptor radioligand binding ([3H]-EMPA competition, HEK293 membranes).
Where [1] appears, read: Table 2, further testing, averages from 2-20 runs, read-out: rOX1 Ki.
Where [2] appears, read: Table 2, further testing, averages from 2-20 runs, read-out: hOX1 Ki.
Setting [3] is: Table 2, further testing, averages from 2-20 runs, read-out: hOX2 Ki.
The mark [4] stands for this setting: rat orexin 1 receptor, Table 2, averages from between 2-20 runs, read-out: rOX1 Ki.
The mark [5] stands for this setting: human orexin 1 receptor, Table 2, averages from between 2-20 runs, read-out: hOX1 Ki.
Setting [6] is: human orexin 2 receptor, Table 2, averages from between 2-20 runs, read-out: hOX2 Ki.

Like-named read-outs stand apart in the source and are kept apart here.

Chain of human orexin 1 receptor (O43613 whole entry): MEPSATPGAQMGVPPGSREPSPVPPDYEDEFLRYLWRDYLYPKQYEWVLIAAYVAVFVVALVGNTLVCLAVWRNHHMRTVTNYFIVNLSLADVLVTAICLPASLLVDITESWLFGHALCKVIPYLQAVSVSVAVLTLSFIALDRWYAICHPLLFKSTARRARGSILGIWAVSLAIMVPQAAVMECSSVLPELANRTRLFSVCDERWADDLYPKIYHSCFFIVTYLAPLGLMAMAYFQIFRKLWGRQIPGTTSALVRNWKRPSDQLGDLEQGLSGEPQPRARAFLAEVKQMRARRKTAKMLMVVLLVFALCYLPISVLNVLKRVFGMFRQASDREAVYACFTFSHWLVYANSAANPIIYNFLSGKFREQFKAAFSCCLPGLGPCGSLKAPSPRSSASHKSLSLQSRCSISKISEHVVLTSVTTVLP
Chain of rat orexin 1 receptor (P56718 whole entry): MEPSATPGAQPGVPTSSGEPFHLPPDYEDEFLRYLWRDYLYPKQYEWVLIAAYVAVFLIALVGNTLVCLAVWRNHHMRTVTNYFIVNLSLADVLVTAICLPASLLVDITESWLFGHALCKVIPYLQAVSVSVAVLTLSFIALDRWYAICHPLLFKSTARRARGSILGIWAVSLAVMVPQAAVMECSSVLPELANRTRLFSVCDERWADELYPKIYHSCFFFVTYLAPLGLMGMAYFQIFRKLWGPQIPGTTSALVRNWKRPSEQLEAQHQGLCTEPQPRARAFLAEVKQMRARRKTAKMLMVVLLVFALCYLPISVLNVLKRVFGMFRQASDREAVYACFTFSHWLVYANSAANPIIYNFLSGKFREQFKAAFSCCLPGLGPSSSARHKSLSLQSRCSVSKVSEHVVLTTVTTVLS
Chain of human orexin 2 receptor (O43614 whole entry): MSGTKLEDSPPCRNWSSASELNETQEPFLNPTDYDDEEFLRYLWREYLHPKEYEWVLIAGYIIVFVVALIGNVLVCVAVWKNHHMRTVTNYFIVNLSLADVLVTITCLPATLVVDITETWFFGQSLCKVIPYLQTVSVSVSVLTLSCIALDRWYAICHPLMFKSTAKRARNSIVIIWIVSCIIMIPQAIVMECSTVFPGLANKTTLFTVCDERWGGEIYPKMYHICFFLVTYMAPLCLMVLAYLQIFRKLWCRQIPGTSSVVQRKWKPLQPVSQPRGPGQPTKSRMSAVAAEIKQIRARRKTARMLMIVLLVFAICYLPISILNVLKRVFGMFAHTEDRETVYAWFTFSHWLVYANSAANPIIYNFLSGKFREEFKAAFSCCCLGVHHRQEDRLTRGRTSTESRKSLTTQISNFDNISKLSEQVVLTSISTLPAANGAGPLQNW

Take `O=C(c1ccccc1-c1ncccn1)N1[C@@H]2CC[C@H]1[C@H](Nc1ncc(C(F)(F)F)cc1F)C2` [Example 461, ((1S,2R,4R)-2-((3-fluoro-5-(trifluoromethyl)pyridin-2-yl)amino)-7-azabicyclo[2.2.1]heptan-7-yl)(2-(pyrimidin-2-yl)phenyl)methanone]: the Ki amounted to 30 nM on rat orexin 1 receptor (setting [1]), 24 nM at human orexin 1 receptor (setting [2]) and 760 nM at human orexin 2 receptor (setting [3]).
With `Cc1cccc(C(=O)N2[C@@H]3CC[C@H]2[C@H](Nc2ccc(C#N)cn2)C3)c1-c1ncccn1` [Example 393, 6-(((1S,2R,4R)-7-(3-methyl-2-(pyrimidin-2-yl)benzoyl)-7-azabicyclo[2.2.1]heptan-2-yl)amino)nicotinonitrile], the Ki amounted to 500 nM on rat orexin 1 receptor (setting [4]), 323 nM at human orexin 1 receptor (setting [5]) and 8300 nM at human orexin 2 receptor (setting [6]).
Take `O=C(c1cccc(F)c1-c1ccccn1)N1[C@@H]2CC[C@H]1[C@H](Nc1cnc(C(F)(F)F)cn1)C2` [Example 408, (3-fluoro-2-(pyridin-2-yl)phenyl)((1S,2R,4R)-2-((5-(trifluoromethyl)pyrazin-2-yl)amino)-7-azabicyclo[2.2.1]heptan-7-yl)methanone]: the Ki amounted to 12 nM on rat orexin 1 receptor (read-out: rOX1 Ki), 19 nM on human orexin 1 receptor (read-out: hOX1 Ki) and 150 nM on human orexin 2 receptor (setting [6]).
In the case of `Cc1cnc(C(=O)N2[C@@H]3CC[C@H]2[C@H](Nc2ncc(C(F)(F)F)cc2F)C3)c(-c2ncccn2)c1` [Example 457, ((1S,2R,4R)-2-((3-fluoro-5-(trifluoromethyl)pyridin-2-yl)amino)-7-azabicyclo[2.2.1]heptan-7-yl)(5-methyl-3-(pyrimidin-2-yl)pyridin-2-yl)methanone], the Ki on rat orexin 1 receptor (setting [1]) was 55 nM; at human orexin 1 receptor (setting [2]), 98 nM; at human orexin 2 receptor (setting [3]) it was 9100 nM.
Take `Cc1ccc(-c2ncccn2)c(C(=O)N2[C@@H]3CC[C@H]2[C@H](Nc2cnc(C(F)(F)F)cn2)C3)n1` [Example 403, (6-methyl-3-(pyrimidin-2-yl)pyridin-2-yl)((1S,2R,4R)-2-((5-(trifluoromethyl)pyrazin-2-yl)amino)-7-azabicyclo[2.2.1]heptan-7-yl)methanone]: the figures for the inhibition constant (Ki) at rat orexin 1 receptor (read-out: rOX1 Ki), at human orexin 1 receptor (read-out: hOX1 Ki) and on human orexin 2 receptor (setting [6]) were 88 nM, 67 nM and 431 nM, respectively.
In the case of `Cc1cnc(-n2nccn2)c(C(=O)N2[C@@H]3CC[C@H]2[C@H](Nc2cnc(C(F)(F)F)cn2)C3)c1` [Example 401, (5-methyl-2-(2H-1,2,3-triazol-2-yl)pyridin-3-yl)((1S,2R,4R)-2-((5-(trifluoromethyl)pyrazin-2-yl)amino)-7-azabicyclo[2.2.1]heptan-7-yl)methanone], the Ki is 196 nM on rat orexin 1 receptor (setting [4]), 394 nM at human orexin 1 receptor (setting [5]) and more than 10000 nM on human orexin 2 receptor (setting [6]).
Consider `O=C(c1cccc(F)c1-n1nccn1)N1C2CCC1C(COc1nccc(C(F)(F)F)n1)C2` (racemic) [Example 134, (±)-(3-fluoro-2-(2H-1,2,3-triazol-2-yl)phenyl)(2-(((4-(trifluoromethyl)pyrimidin-2-yl)oxy)methyl)-7-azabicyclo[2.2.1]heptan-7-yl)methanone], for which the Ki on rat orexin 1 receptor was 1500 nM; at human orexin 1 receptor, 690 nM.
As to `Cc1cccc(C(=O)N2[C@@H]3CC[C@H]2[C@H](Nc2ccc(C(F)(F)F)cn2)C3)c1-c1ncccn1` [Example 299, (3-methyl-2-(pyrimidin-2-yl)phenyl)((1S,2R,4R)-2-((5-(trifluoromethyl)pyridin-2-yl)amino)-7-azabicyclo[2.2.1]heptan-7-yl)methanone], the Ki at rat orexin 1 receptor (setting [4]) turned out to be 16 nM; at human orexin 1 receptor (setting [5]), 7 nM; on human orexin 2 receptor (setting [6]) it was 234 nM.
In the case of `O=C(c1cccc(F)c1-c1ccccn1)N1[C@@H]2CC[C@H]1[C@H](Nc1ccc(C(F)(F)F)cn1)C2` [Example 320, (3-fluoro-2-(pyridin-2-yl)phenyl)((1S,2R,4R)-2-((5-(trifluoromethyl)pyridin-2-yl)amino)-7-azabicyclo[2.2.1]heptan-7-yl)methanone], the Ki at rat orexin 1 receptor (read-out: rOX1 Ki) is 37 nM; at human orexin 1 receptor (read-out: hOX1 Ki), 14 nM; at human orexin 2 receptor (setting [6]) it was 260 nM.
Consider `O=C(c1ccccc1-c1ncccn1)N1C2CCC1C(Oc1ccc(C(F)(F)F)cn1)C2` (racemic) [Example 432], for which the Ki turned out to be 147 nM at rat orexin 1 receptor (setting [4]), 307 nM at human orexin 1 receptor (setting [5]) and 6000 nM on human orexin 2 receptor (setting [6]).
In the case of `O=C(c1ccccc1-c1ncccn1)N1[C@@H]2CC[C@H]1[C@H](Nc1ncc(C(F)(F)F)cn1)C2` [Example 417, (2-(pyrimidin-2-yl)phenyl)((1S,2R,4R)-2-((5-(trifluoromethyl)pyrimidin-2-yl)amino)-7-azabicyclo[2.2.1]heptan-7-yl)methanone], the Ki was 52 nM at rat orexin 1 receptor (read-out: rOX1 Ki), 41 nM at human orexin 1 receptor (read-out: hOX1 Ki) and 1900 nM on human orexin 2 receptor (setting [6]).
On to `Cc1cnc(C(=O)N2[C@@H]3CC[C@H]2[C@H](Nc2ncc(C(F)(F)F)cc2F)C3)c(-n2nccn2)c1` [Example 420, ((1S,2R,4R)-2-((3-fluoro-5-(trifluoromethyl)pyridin-2-yl)amino)-7-azabicyclo[2.2.1]heptan-7-yl)(5-methyl-3-(2H-1,2,3-triazol-2-yl)pyridin-2-yl)methanone], for which the figures for the Ki at rat orexin 1 receptor (setting [4]), on human orexin 1 receptor (setting [5]) and on human orexin 2 receptor (setting [6]) were 100 nM, 114 nM and 884 nM, respectively.
As to `Cc1cccc(C(=O)N2[C@@H]3CC[C@H]2[C@H](Nc2cnc(C(F)(F)F)cn2)C3)c1-c1ncc(F)cn1` [Example 399, (2-(5-fluoropyrimidin-2-yl)-3-methylphenyl)((1S,2R,4R)-2-((5-(trifluoromethyl)pyrazin-2-yl)amino)-7-azabicyclo[2.2.1]heptan-7-yl)methanone], the Ki amounted to 10 nM on rat orexin 1 receptor (read-out: rOX1 Ki), 9 nM on human orexin 1 receptor (read-out: hOX1 Ki) and 300 nM on human orexin 2 receptor (setting [6]).
For `O=C(c1cccc(F)c1-c1ncccn1)N1[C@@H]2CC[C@H]1[C@H](Nc1cnc(C(F)(F)F)cn1)C2` [Example 238, (3-fluoro-2-(pyrimidin-2-yl)phenyl)((1S,2R,4R)-2-((5-(trifluoromethyl)pyrazin-2-yl)amino)-7-azabicyclo[2.2.1]heptan-7-yl)methanone], the results for the Ki at rat orexin 1 receptor, at human orexin 1 receptor and at human orexin 2 receptor were 15 nM, 15 nM and 763 nM, respectively.
In the case of `Cc1cccc(C(=O)N2[C@@H]3CC[C@H]2[C@H](Nc2ccc(C#N)cn2)C3)c1-n1nccn1` [Example 391, 6-(((1S,2R,4R)-7-(3-methyl-2-(2H-1,2,3-triazol-2-yl)benzoyl)-7-azabicyclo[2.2.1]heptan-2-yl)amino)nicotinonitrile], the Ki is 220 nM at rat orexin 1 receptor (setting [4]), 315 nM on human orexin 1 receptor (setting [5]) and 4400 nM on human orexin 2 receptor (setting [6]).
Consider `O=C(c1ccccc1-n1nccn1)N1C2CCC1C(Oc1ccc(C(F)(F)F)cn1)C2` (racemic) [Example 421], for which the inhibitory constant (Ki) on rat orexin 1 receptor came out at 205 nM; at human orexin 1 receptor, 154 nM; on human orexin 2 receptor (setting [6]), 4200 nM.
Take `[2H]C1(Nc2cnc(C(F)(F)F)cn2)CC2CCC1N2C(=O)c1cccc(F)c1-c1ncccn1` [Example 395, (3-fluoro-2-(pyrimidin-2-yl)phenyl)((1S,2R,4R)-(2-^2H)-((5-(trifluoromethyl)pyrazin-2-yl)amino)-7-azabicyclo[2.2.1]heptan-7-yl)methanone]: the Ki worked out at 17 nM on rat orexin 1 receptor, 14 nM on human orexin 1 receptor and 899 nM at human orexin 2 receptor.
Turning to `O=C(c1c(F)cccc1-n1nccn1)N1[C@@H]2CC[C@H]1[C@H](Nc1ccc(C(F)(F)F)cn1)C2` [Example 370, (2-fluoro-6-(2H-1,2,3-triazol-2-yl)phenyl)((1S,2R,4R)-2-((5-(trifluoromethyl)pyridin-2-yl)amino)-7-azabicyclo[2.2.1]heptan-7-yl)methanone], the Ki was 104 nM at rat orexin 1 receptor (setting [4]), 142 nM at human orexin 1 receptor (setting [5]) and 508 nM at human orexin 2 receptor (setting [6]).
For the molecule `Cc1cnc(-n2nccn2)c(C(=O)N2[C@@H]3CC[C@H]2[C@H](Nc2ncc(C(F)(F)F)cc2F)C3)c1` [Example 453, ((1S,2R,4R)-2-((3-fluoro-5-(trifluoromethyl)pyridin-2-yl)amino)-7-azabicyclo[2.2.1]heptan-7-yl)(5-methyl-2-(2H-1,2,3-triazol-2-yl)pyridin-3-yl)methanone], the Ki is 210 nM at rat orexin 1 receptor (setting [1]), 305 nM at human orexin 1 receptor (setting [2]) and more than 10000 nM at human orexin 2 receptor (setting [3]).
`O=C(c1cccc(F)c1-c1ncc(F)cn1)N1[C@@H]2CC[C@H]1[C@H](Nc1ncc(C(F)(F)F)cc1F)C2` [Example 463, (3-fluoro-2-(5-fluoropyrimidin-2-yl)phenyl)((1S,2R,4R)-2-((3-fluoro-5-(trifluoromethyl)pyridin-2-yl)amino)-7-azabicyclo[2.2.1]heptan-7-yl)methanone]: the Ki at rat orexin 1 receptor (read-out: rOX1 Ki) was determined as 53 nM; on human orexin 1 receptor (read-out: hOX1 Ki) it was 50 nM; at human orexin 2 receptor (setting [3]), 1900 nM.
Take `Cc1ccc(-c2ncccn2)c(C(=O)N2[C@@H]3CC[C@H]2[C@H](Nc2ccc(C(F)(F)F)cn2)C3)n1` [Example 379, (6-methyl-3-(pyrimidin-2-yl)pyridin-2-yl)((1S,2R,4R)-2-((5-(trifluoromethyl)pyridin-2-yl)amino)-7-azabicyclo[2.2.1]heptan-7-yl)methanone]: the Ki was 25 nM at rat orexin 1 receptor (read-out: rOX1 Ki) and 24 nM at human orexin 1 receptor (read-out: hOX1 Ki).
For the molecule `O=C(c1cccc(F)c1-c1ncccn1)N1[C@H]2CC[C@@H]1[C@@H](Nc1cnc(C(F)(F)F)cn1)C2` [Example 297, (3-fluoro-2-(pyrimidin-2-yl)phenyl)((1R,2S,4S)-2-((5-(trifluoromethyl)pyrazin-2-yl)amino)-7-azabicyclo[2.2.1]heptan-7-yl)methanone], the Ki on rat orexin 1 receptor was 402 nM; on human orexin 1 receptor (setting [5]), more than 10000 nM.
In the case of `O=C(c1cc(F)ccc1-n1nccn1)N1C2CCC1C(COc1ccc(F)cn1)C2` (racemic) [Example 30, (±)-(5-fluoro-2-(2H-1,2,3-triazol-2-yl)phenyl)(2-(((5-fluoropyridin-2-yl)oxy)methyl)-7-azabicyclo[2.2.1]heptan-7-yl)methanone], the inhibition constant Ki at human orexin 1 receptor turned out to be 60 nM; at human orexin 2 receptor (human orexin 2 receptor, Table 2, averages of 2-20 runs, read-out: hOX2 Ki), 160 nM.
